Measured values as given in patent US12059433B2, “Treatment for autistic spectrum disorder (ASD) and relevant symptoms” (ACADEMIA SINICA, priority 2019, dated 2024).

Assays:
[1] = tested on: Cttnbp2−/− mice; experiment: Reciprocal social interaction (RSI) test, Cttnbp2−/− mice; format: in vivo, mouse
Experimental: (§1) Mouse behaviors were recorded by videotaping from above. […] Aggressive behavior was not assessed. […] The zinc concentrations were normalized by protein amounts. […] The first trial was performed before zinc supplementation. […] Reciprocal social interaction trials were performed as described above. To analyze the effect of D-cycloserine (DCS, ab120121, Abcam) on social behaviors of Cttnbp2 mutant mice, adult mice (˜8 weeks old) were first habituated to handling by subjecting them to an open field with or without inanimate objects. Mice were then isolated until ˜10 weeks old for reciprocal social interaction trials. During isolation, mice were habituated to intraperitoneal injection, which effectively reduces their anxiety response to intraperitoneal injection during the experimental period. On day 1 of the experiment, saline control (0.9% of NaCl) was intraperitoneally injected into the test animal 30 min before a reciprocal social interaction trial, conducted as described above. On day 2 of the experiment, D-cycloserine solution (2 mg/kg in 0.9% of NaCl) was intraperitoneally injected into mice 30 min before a reciprocal social interaction trial.

[2] = tested on: CTTNBP2 R533* mice; experiment: Reciprocal social interaction (RSI) test, R533* mutant mice; format: in vivo, mouse
Experimental: as §1

[3] = tested on: CTTNBP2 M120I mice; experiment: Reciprocal social interaction (RSI) test, M120I mutant mice; format: in vivo, mouse; settings: for social interaction in RSI, single supplement: CTTNBP2 M120I mice, individually provided: zinc (20 ppm), BCAA (0.225%), serine (0.5%)
Experimental: Before RSI, mice were individually isolated for at least a week. For the experiment, an unfamiliar adult mouse was put into the home cage of the test mouse for 10 min. The lid of the cage was removed during the entire session. Mouse behaviors were recorded by videotaping from above. The total time a test mouse spent interacting with and gently sniffing the unfamiliar mouse was manually recorded. Aggressive behavior was not assessed.
A supplement or supplement mixture was prepared by mixing a zinc ion source, a serine component and/or BCAAs at various concentrations in drinking water for behavior analyses.
We tested three different ASD mouse models, i.e. Nf1+/−, Tbr1+/−, and Cttnbp2 M120I mice. Before taking supplement, mice were subjected to the first reciprocal social interaction test. After taking supplement for 7 days, mice were analyzed again using reciprocal social interaction to evaluate the effect of nutritional supplementation.

[4] = tested on: Shank2−/− mice; settings: previous studies [35-38]; cited from earlier work
[5] = tested on: Tbr1+/− mice; settings: cited from earlier work; for behavioral defects and autism-like behaviors: refs [49, 50, 51]
[6] = Cttnbp2−/− mice; 40 ppm zinc in drinking water for 7 days vs regular water
Experimental: (§2) The concentration of zinc in the mouse chow (5K54, LabDiet) provided in our animal facility is 84 ppm. To increase the zinc intake to ˜150 ppm, mice were provided with ZnSO4 (Z0251, Sigma-Aldrich) in drinking water at a concentration of 40 ppm, which is based on daily consumption of ˜5 ml water and 2.5 g chow by each mouse. To study the expression of synaptic proteins after zinc supplementation, adult mice (˜8 weeks old) were fed with zinc-supplemented water or normal drinking water as control for 7 days and then sacrificed for synaptosomal analysis as described above. To validate the zinc levels in brain, zinc quantification kit (ab102597, Abcam) was used according to manufacturer's instruction. The zinc concentrations were normalized by protein amounts. To study the effect of zinc supplementation on social behavior of Cttnbp2 deletion and mutant mice, three consecutive trials of reciprocal social interaction were performed at intervals of 7 days (FIG. 8C). The first trial was performed before zinc supplementation. After the first trial, mice were provided with zinc-supplemented water (40 ppm) for 7 days and then subjected to the second trial. After the second trial, zinc-supplemented water was replaced with normal drinking water for 7 days and mice then underwent the third trial. Reciprocal social interaction trials were performed as described above.

[7] = tested on: wild-type mice; settings: 40 ppm zinc in drinking water for 7 days
Experimental: as §2

[8] = tested on: synaptic proteins and glutamate receptors in synaptosomal fractions of Cttnbp2−/− mouse brains; settings: 40 ppm zinc in drinking water for 7 days vs regular water
Experimental: One hemisphere of the forebrains from adult mice (˜8-weeks-old) were isolated and homogenized using a tissue dounce homogenizer with a loose pestle in 1 ml sucrose buffer [50 mM Tris-Cl pH 7.4, 320 mM sucrose, 2 mM DTT, 2 μg/ml leupeptin, 2 μg/ml pepstatin-A, 2 μg/ml aproteinin, 2 mM PMSF, 2 μg/ml MG132]. An aliquot of 50 μl of total homogenate was kept. The remainder of the total homogenate was centrifuged twice at 800×g for 10 min at 4° C. The supernatant was centrifuged at 9200×g for 15 min to collect the pellet as a crude synaptosomal fraction. The protein concentrations of total homogenates and synaptosomal fractions were determined by Bradford assay (Bio-Rad Protein Assay Dye Reagent Concentrate, Cat #5000006). Synaptosomal protein samples were then analyzed with LC-MS-MS and immunoblotting.
To validate CTTNBP2 expression in knockout mice, adult mouse brain (˜8 weeks old) samples were homogenized in RIPA buffer. After 30 min, debris was removed by centrifugation (13000 rpm in a microcentrifuge for 20 min). The supernatants were collected and protein amounts were determined by Bio-Rad Protein Assay Dye Reagent Concentrate. Protein samples were denatured by 2× sample buffer and boiled for 10 min. Five μg of protein samples were separated by SDS-PAGE and then transferred to PVDF membrane. Membranes were blocked using blocking buffer [5% skim milk and 0.1% Tween-20 in PBS] for 30 min and hybridized with primary antibodies. In principle, primary antibody was added into blocking buffer and hybridized with the membrane overnight at 4° C. or for 3 hr at room temperature. Horseradish peroxidase-conjugated goat anti-mouse, rabbit, or guinea pig secondary antibodies were used to detect primary antibody and were visualized using a Western Lightening Plus ECL system (PerkinElmer).
as §2

[9] = zinc supplementation in drinking water, experimental period

Question: Which results are given for `N[C@@H]1CONC1=O` [D-cycloserine, (4R)-4-amino-1,2-oxazolidin-3-one, reference compound]?
Answer: social interaction behavior in RSI test ([1]; 2 mg/kg intraperitoneally 30 min before RSI, vs saline control): increased social interaction behavior; social interaction behaviors in RSI test ([2]; R533* mutant mice, 2 mg/kg intraperitoneally 30 min before RSI, vs saline): improved; social interaction behaviors in RSI test ([3]; M120I mutant mice, 2 mg/kg intraperitoneally 30 min before RSI, vs saline): improved; social behaviors [4]: improves; social behaviors ([5]; previous studies [35-38]): improves; behavioral defects and autism-like behaviors [5]: ameliorate the behavioral defects and improve autism-like behaviors

Question: Which “behavioral defects and autism-like behaviors” value [5] does the source give for `Oc1c(I)cc(Cl)c2cccnc12` [clioquinol] here?
Answer: The value was “ameliorate the behavioral defects and improve autism-like behaviors”.

Question: For `N[C@@H](CO)C(=O)O` [serine, L-Serine], which “social interaction in RSI, single supplement” value [3] is on record?
Answer: The value was “did not improve”.

Question: With `O.O.O.O.O.O.O.O=S(=O)([O-])[O-].[Zn+2]` [zinc, Zinc sulfate heptahydrate] as the compound, how does the “concentration of zinc in brains” value [6] read?
Answer: Its value is “increase”.

Question: And the “social behaviors in RSI tests” value [7]?
Answer: The value was “did not noticeably influence”.

Question: And the “GRIN1 expression level in synaptosomal fractions” value [8]?
Answer: The value was “increased”.

Question: What about the “GRIN2B expression level in synaptosomal fractions” value [8] of the same compound?
Answer: Its value is “increased”.

Question: What about the “MOB4 expression level in synaptosomal fractions” value [8] of the same compound?
Answer: Its value is “increased”.

Question: What about the “RAC3 expression level in synaptosomal fractions” value [8] of the same compound?
Answer: Its value is “increased”.

Question: What about the “SHANK2 expression level in synaptosomal fractions” value [8] of the same compound?
Answer: The value was “increased”.

Question: And the “SHANK3 expression level in synaptosomal fractions” value [8]?
Answer: The value was “increased”.

Question: What about the “STRN expression level in synaptosomal fractions” value [8] of the same compound?
Answer: Its value is “increased”.

Question: What about the “cortactin expression level in synaptosomal fractions” value [8] of the same compound?
Answer: Its value is “increased”.

Question: What about the “levels of GRIA1 in synaptosomal fractions” value [8] of the same compound?
Answer: The value was “not noticeably altered”.

Question: What about the “levels of GRIA2 in synaptosomal fractions” value [8] of the same compound?
Answer: The value was “not noticeably altered”.

Question: And the “synaptic levels of DPYSL3” value [8]?
Answer: The value was “reduced”.

Question: What about the “social interaction, third RSI test” value ([1]; 7 days after discontinuing zinc supplementation, vs second RSI test) of the same compound?
Answer: Its value is “reduced”.

Question: And the “time interacting with the unfamiliar mouse, second RSI test” value ([1]; after 40 ppm zinc in drinking water for 7 days, vs first RSI test)?
Answer: The value was “spent significantly longer interacting with the unfamiliar mouse”.

Question: What about the “social interaction, third RSI test” value ([2]; R533* mice, 7 days after discontinuing zinc supplementation, vs second RSI test) of the same compound?
Answer: The value was “tended to be lowered, but it was not statistically different from those of the second RSI”.

Question: What about the “time interacting with the unfamiliar mouse, second RSI test” value ([2]; R533* mice, after 40 ppm zinc in drinking water for 7 days, vs first RSI test) of the same compound?
Answer: Its value is “spent significantly longer interacting with the unfamiliar mouse”.

Question: What about the “social interaction in RSI, single supplement” value [3] of the same compound?
Answer: The value was “did not improve”.

Question: And the body weight [9]?
Answer: The body weight was “nor did it alter”.

Question: And the “volumes of water drunk daily” value [9]?
Answer: The value was “nor did it alter”.
